# Results as given in patent publication US8865672B2, “Prevention of tissue ischemia and related methods” (The United States of America, as represented by the …, priority 2006, dated 2014).
# Legend:
# HASMC [1] = experiment: NO-stimulated HASMC adhesion on type I collagen; type: cell-based, human; conditions: DEA/NO 10 μM, 1 h
# Protocol: Cell adhesion was carried out in 96-well culture plates. After pre-coating wells with type I collagen (3 μg/ml in DPBS) harvested cells were plated at a density of 1×10^4 cells/well in medium plus 0.1% BSA and treatment agents and incubated in 5% CO2 for 1 h. Wells were washed with PBS and cells fixed with 1% glutaraldehyde for 10 min., washed and stained with 1% crystal violet for 20 min. Excess stain was rinsed away, adherent cells treated with 10% acetic acid, and plates read at 570 nm.
# HASMC [2] = experiment: HASMC proliferation (MTS); type: cell-based, human; conditions: DETA/NO 10 μM, 72 h
# Protocol: Proliferation of vascular cells was measured with a non-radioactive colorimetric assay (CellTiter 96, Promega, Madison, Wis.). Briefly, to each well of a 96-well culture plate (Nunc, Denmark) 5×10^3 cells were suspended in 100 μl of culture medium with indicated treatments and incubated for 72 hours at 37° C. in a 5% CO2 atmosphere. Following incubation 20 μl of tetrazolium compound/solubilization agent was added and incubation continued for 4 hours under the same conditions. The plate was then read on a MR580 Microelisa Auto Reader (Dynatech) at a wavelength of 490 nm. Appropriate zero time controls were run for all assays and the optical density readings obtained then subtracted from those obtained at 72 hours.
# HASMC [3] = experiment: Intracellular cGMP in HASMC; type: cell-based, human; conditions: DEA/NO 10 μM, 5 minutes
# [4] = tested on: murine ASMC (WT, CD36 null, CD47 null); experiment: Intracellular cGMP in murine ASMC; type: cell-based, mouse
# How it was run: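 Aortic smooth muscle cells from wild-type C57Bl/6, CD36-null or CD47-null mice, passage 1–4, plated overnight in full growth medium. Weaned to SM-GM + 0.1% BSA before treatment with NO donor and other agents. Intracellular cGMP measured by enzyme immunoassay.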
substance,measurement,setting,value
CBD: recombinant C-terminal cell-binding domain (G module) of TSP1,NO-stimulated HASMC adhesion on type I collagen,HASMC [1],slightly less active but also dose-dependently inhibited
same,NO-stimulated HASMC proliferation,HASMC [2],inhibited NO-stimulated HASMC proliferation
same,NO-stimulated cGMP levels in HASMC,HASMC [3],equipotent dose-dependent inhibitors
same,NO-stimulated cGMP,[4]; CD36 null MASMC,completely inhibited
same,NO-stimulated cGMP,[4]; CD47 null MASMC,did not significantly inhibit
